From PubChem BioAssay AID1949 (Southern Research Institute, 2009) come the findings set out here.

Converted amounts (≈) assume the structure as drawn. Records with an inconclusive call do not appear. The source made the active and inactive calls. The rule behind the calls is not given here.

The assay has as its system M. tuberculosis H37Rv growth inhibition. Description: Mycobacterium tuberculosis H37Rv growth inhibition, cell based, confirmatory dose response (AID 1949).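 Note: bacteria grown 7 days with compound before Alamar blue readout.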
The term IC50 denotes the concentration that gives 50% inhibition. For `COC(=O)CSc1nc2sc3c(c2c(=O)n1Cc1ccccc1)CCC(C(C)(C)C)C3` (stereo unspecified), the IC50 is > 50 µg/mL (inactive).

Regarding `CCOC(=O)c1ccc2nc(C)cc(Nc3ccc(N4CCCCC4)cc3)c2c1`, the IC50 is 2.41 µg/mL (≈ 6.19 µM).

For `CC(=O)c1ccc(NC(=O)CSc2ccc(F)cc2)cc1`, the IC50 was 7.95 µg/mL (≈ 26.2 µM).

Turning to `CCOC(=O)CSc1nnc2c3sc4nc(N5CCOCC5)c5c(c4c3ncn12)CC(C)(C)OC5`, the IC50 is 1.33 µg/mL (≈ 2.58 µM).

`COc1ccc(C(=O)c2ccc(N3CCN(C)CC3)c([N+](=O)[O-])c2)c2ccccc12`: the IC50 is 5.57 µg/mL (≈ 13.7 µM).

With `CCc1ccccc1N1C(=O)c2cccc3c([N+](=O)[O-])ccc(c23)C1=O`, the IC50 is 19 µg/mL (≈ 54.9 µM).

Take `O=[N+]([O-])c1cccc(NC(=S)Nc2ccc(Cl)c(C(F)(F)F)c2)c1`: the IC50 was 2.62 µg/mL (≈ 6.97 µM).

For the compound `Cc1ccc(Nc2ccc(-n3ccnc3)nn2)cc1Cl`, the IC50 is 2.67 µg/mL (≈ 9.34 µM).

For `O=C1C=C(c2ccccc2)C(=O)c2ccccc21`, the IC50 is 2.68 µg/mL (≈ 11.4 µM).

On to `CCCc1cc2c(-c3ccccc3)cc(=O)oc2cc1OCC`, for which the IC50 is > 50 µg/mL (inactive).

Consider `COc1cccc(OCC(=O)c2ccc(Br)cc2)c1`, for which the IC50 is 0.37 µg/mL (≈ 1.15 µM).

Take `O=C(NC(=S)Nc1ccc(F)cc1)c1ccc(Br)cc1`: the half-inhibitory concentration (IC50) was 0.95 µg/mL (≈ 2.69 µM).

With `O=C(C#Cc1ccccc1)c1ccc([N+](=O)[O-])cc1`, the IC50 was > 50 µg/mL (inactive).

In the case of `Brc1c(OCCCn2ccnc2)ccc2ccccc12`, the IC50 was 1.56 µg/mL (≈ 4.71 µM).

For the compound `CC1=CC(C)(C)Nc2ccc(OC(=O)c3cccnc3)cc21`, the IC50 was 2.88 µg/mL (≈ 9.78 µM).

With `CCC(C)NC(=O)c1ccc(NC(=O)C2(c3ccccc3)CCCC2)cc1` (stereo unspecified), the IC50 is 1.08 µg/mL (≈ 2.96 µM).

Turning to `CCC(C)c1ccc(OCCCCn2ccnc2)cc1` (stereo unspecified), the IC50 is 1.12 µg/mL (≈ 4.11 µM).

On to `Cc1c(Cl)cccc1NC(=O)c1ccc(OC(C)C(=O)OC2CCCCC2)cc1` (stereo unspecified), for which the IC50 is < 0.1 µg/mL.

On to `O=C(CC1(O)C(=O)N(CCc2ccccc2)c2ccc(Cl)cc21)c1ccncc1` (stereo unspecified), for which the IC50 was 6.03 µg/mL (≈ 14.8 µM).

Regarding `CC(C)(C)c1cc(Cl)ccc1OCCn1ccnc1`, the IC50 is 1.94 µg/mL (≈ 6.96 µM).

Take `O=C(Nc1cccc(I)c1)C(Cl)Cl`: the IC50 was 5.84 µg/mL (≈ 17.7 µM).

For the compound `O=C(c1ccc(Cl)cc1)c1ccc(CSc2nnc(-c3ccccc3)o2)o1`, the IC50 was < 0.1 µg/mL.

With `Cc1cccc(N2CCN(c3ncnc4sc5c(c34)CCCC5)CC2)n1`, the IC50 is 2.26 µg/mL (≈ 6.18 µM).

As for `CCC(C)Oc1ccc(C(=O)NC(=S)Nc2ccc(N3CCOCC3)cc2)cc1` (stereo unspecified), the IC50 was 1.22 µg/mL (≈ 2.95 µM).

Consider `CCOc1ccc(C(=O)NC(=S)Nc2ccc(CN3CCOCC3)cc2)cc1Cl`, for which the IC50 was 15.7 µg/mL (≈ 36.2 µM).

As to `COc1cc(/C=C/c2ccc3cccc(O)c3n2)cc([N+](=O)[O-])c1O`, the IC50 is 0.41 µg/mL (≈ 1.21 µM).

As to `Cc1ccc(N2CCN(CCNC(=S)Nc3cccc(C)c3C)CC2)c(Cl)c1`, the IC50 is 8.3 µg/mL (≈ 19.9 µM).

In the case of `O=[N+]([O-])/C=C/c1c[nH]c2ccc(Br)cc12`, the 50% inhibitory concentration (IC50) is 8.61 µg/mL (≈ 32.2 µM).

With `Cc1cc(OCCn2ccnc2)cc(C(C)C)c1`, the IC50 is 7.45 µg/mL (≈ 30.5 µM).

Take `CCN1C(=O)c2cccc3c([N+](=O)[O-])ccc(c23)C1=O`: the IC50 is > 50 µg/mL (inactive).

For `COc1ccc(CNCCC(c2ccc(OC)cc2)c2ccccc2OC)cc1` (stereo unspecified), the IC50 is 8 µg/mL (≈ 20.4 µM).

In the case of `CCCCOc1ccc(S(=O)(=O)Nc2ccc(Cl)cc2)cc1`, the IC50 is 4.09 µg/mL (≈ 12 µM).

`CCN(CC)C(=S)NC(=O)c1ccc(F)cc1`: the IC50 is 3.03 µg/mL (≈ 11.9 µM).

On to `C/C(=N/N=C1\NC(=O)C(Cc2cccc(C(F)(F)F)c2)S1)c1ccc(C)cc1` (stereo unspecified), for which the IC50 was 4.95 µg/mL (≈ 12.2 µM).

For the compound `O=C(O)c1ccc(NC(=S)NC(=O)c2ccc(-c3ccccc3)cc2)cc1`, the IC50 was 1.58 µg/mL (≈ 4.2 µM).

Turning to `CCCC(=O)N1CCN(c2ccc(NC(=O)c3cc(Br)ccc3Cl)cc2Cl)CC1`, the IC50 is 3.52 µg/mL (≈ 7.05 µM).

As to `O=[N+]([O-])c1ccc(NC(=S)NCc2ccc(F)cc2)cc1`, the IC50 is 4.86 µg/mL (≈ 15.9 µM).

`Cc1nn(-c2ccc([N+](=O)[O-])cc2)c(C)c1N1C(=O)c2cccc3cc(Br)cc(c23)C1=O`: the IC50 is 0.39 µg/mL (≈ 0.794 µM).

For the compound `O=C(Nc1nccs1)c1cc(Cl)cc(Cl)c1`, the IC50 was 10.2 µg/mL (≈ 37.2 µM).

On to `Cc1cc(OCCCCn2ccnc2)ccc1C(C)C`, for which the IC50 is 2.57 µg/mL (≈ 9.43 µM).

For the compound `O=C(COc1ccc(Br)cc1)Nc1ccccc1F`, the IC50 is 29.5 µg/mL (≈ 91.1 µM).

For the compound `CC(C)(C)c1cc(Cl)c(O)c(NC(=S)NC(=O)c2cncc(Br)c2)c1`, the IC50 was < 0.1 µg/mL.

As for `CCCCN1CCC(O)(c2ccccc2)C(C(=O)c2ccccc2)C1` (stereo unspecified), the IC50 was 11.4 µg/mL (≈ 33.9 µM).

On to `Cc1cccc(C)c1OCc1nnc(SCC(=O)NCCc2ccccc2)o1`, for which the IC50 was 1.75 µg/mL (≈ 4.4 µM).

As for `O=C(Oc1ccc(Cl)c2cccnc12)c1cccc(Br)c1`, the IC50 was 10.6 µg/mL (≈ 29.3 µM).

On to `Cc1ccc(Sc2ccc(C=O)o2)cc1`, for which the IC50 is 2.15 µg/mL (≈ 9.85 µM).

As to `O=S(=O)(Nc1cccc2cccnc12)c1ccc(Br)cc1`, the IC50 is 0.4 µg/mL (≈ 1.1 µM).

Take `COc1cc(CNCCCO)cc(Cl)c1OCc1ccc(Cl)cc1Cl`: the IC50 was 6.25 µg/mL (≈ 15.4 µM).

Consider `Cc1cccc(NC(=S)NCCN2CCN(c3ccc(F)c(Cl)c3)CC2)c1C`, for which the IC50 was 2.79 µg/mL (≈ 6.63 µM).

`CCc1cc2c(=O)oc(-c3ccc(F)cc3)nc2s1`: the IC50 was > 50 µg/mL (inactive).

As for `O=C(NCCC1=CCCCC1)Nc1ccc([N+](=O)[O-])cc1`, the IC50 is 11.6 µg/mL (≈ 40 µM).
